From PMC10824102, “Identification of small molecule inhibitors of G3BP-driven stress granule formation” (The Journal of Cell Biology, 2024)

Legend:
[1] = tested on: eIF3η, PABPC1, and FXR1 puncta in U2OS cells stably expressing G3BP1-GFP; experiment: Immunofluorescence of additional stress granule markers after post-addition; type: cell-based; settings: 250 μM NaAsO2 for 30 min, then 50 μM compound for 5 min
Description: U2OS cells or U2OS cells stably expressing G3BP1-GFP were seeded in four-well Lab-Tek II Chambered Coverglass (1055360; Thermo Fisher Scientific). For preincubation experiments, cells were treated with 50 μM G3I compound for 20 min or 24 h, followed by 250 μM NaAsO2 and 50 μM G3I compound for 30 min. For posttreatment, cells were treated with 250 μM NaAsO2 for 30 min, followed by treatment with 250 μM NaAsO2 and 50 μM G3I compound for 5 min. Cells were then washed twice with PBS and fixed with 4% PFA in PBS for 10 min. Cells were then washed three times with PBS (5 min between each wash), permeabilized with 0.5% Triton X-100 in PBS for 10 min, and washed twice with PBS. Next, cells were blocked for 1 h with 3% BSA in PBS at room temperature, followed by incubation with primary antibodies diluted in 3% BSA overnight at 4°C. Cells were then washed three times with PBS (5 min between each wash) and incubated with secondary antibodies and Hoechst diluted in 3% BSA at room temperature for 1 h. Cells were then washed three times with PBS (5 min between each wash) and imaged. […]

[2] = tested on: TDP-43 localization to stress granules in CRISPR-modified U2OS cells; experiment: Live imaging of GFP-TDP-43 and mRuby3-G3BP1 in CRISPR-modified U2OS cells; type: cell-based; settings: 50 μM pretreatment, 250 μM NaAsO2 for 30 min
Description: For preincubation of compounds, U2OS or HeLa cells stably expressing G3BP1-GFP or CRISPR-modified cells expressing TDP-43-GFP/G3BP1-GFP were seeded into eight-well Lab-Tek chambered cover glass (Nunc). At least 20 min prior to the experiment, 1 ml FluoroBrite DMEM media (Gibco) supplemented with 10% FBS and 4 mM L-glutamine was combined with 0.1% DMSO or G3I compound (5, 10, or 50 μM). This solution was vortexed for 5 s, added to the cells at 250 μl per well, and left to incubate on the microscope for 20 min. Conditions were maintained at 37°C and 5% CO2 using a Bold Line Cage Incubator (Okolab) and an objective heater (Bioptechs). During this incubation time, 5 xy fields were stored per condition, with each field having ∼20–30 cells within it. After the 20-min incubation, 250 μl of 500 μM or 1 mM (2×) sodium arsenite (Sigma-Aldrich) diluted in the FluoroBrite media with an appropriate amount of G3I compound or DMSO was added to the sample. Imaging began immediately after, with images at each xy field being taken every 1 min. For heat shock experiments, U2OS G3BP1-GFP-expressing cells were seeded into a 35-mm glass bottom dish (MatTek). Prior to the experiment, 1.5 ml FluoroBrite DMEM media (Gibco) supplemented with 10% FBS and 4 mM L-glutamine was combined with 0.1% DMSO or 50 μM G3I compound. The sample was incubated on the environmentally controlled microscope for 20 min. […]

Compound	eIF3η, PABPC1, and FXR1 puncta [1]	TDP-43 localization to stress granules [2]
COCCC(NC(=O)C(C)NC(=O)C(NC(=O)C(NC(=O)C(F)CC(C)(C)C)C(C)(C)O)C(C)c1ccccc1)C(=O)N(C)Cc1ccccc1 (stereo not shown) [G3Ia]	reduced eIF3η, PABPC1, and FXR1 puncta	–
CC(NC(=O)C(NC(=O)C(NC(=O)CCC(C)(C)C)C(C)(C)O)C(C)c1ccccc1)C(=O)N1CCCC1c1ccccc1 (stereo not shown) [G3Ib]	reduced eIF3η, PABPC1, and FXR1 puncta	not
CC(NC(=O)C(NC(=O)C(NC(=O)CCC(C)(C)C)C(C)(C)O)C(C)c1ccccc1)C(=O)N1CCCC1c1ccccc1 (stereo not shown) [G3Ib′]	–	a small proportion of TDP-43 localized to stress granules
